The text below walks through data of patent US20140378378A1, “ERYTHROPOIETIN-DERIVED PEPTIDE AND USE THEREFOR” (priority 2011, published 2014).

For one test, the system named is retinal neurocytes. The experiment in a line: Cell survival of retinal neurocytes, MTT assay, 72 hours, hypoxic conditions. Format: cell-based, rat. Particulars: for cell survival rate: normal culture = 100%. The method, then: Eyes of a […] rat were removed and retina of the eyes were separated and then put into solution 1. Retinal tissues were treated in trypsin at a temperature of 37° C. for 10 minutes and then centrifuged at 180 g for 5 minutes.
After centrifugation, a supernatant solution was discarded and all collected tissues were put into a stop solution. Aggregated tissues were disentangled by using a pipette and then centrifuged again at 180 g for 5 minutes. Separated cells were mixed with 10% FBS-MEM at a density of 1×10^6 cells/mL. 100 ul of cells were inoculated in each well of a 96-well plate and then cultured for 24 hours.
Thereafter, the culture medium was removed from the well plate for stabilization, a new culture medium and 5 uM Ara-c (cytosine arabinoside, sigma, C1768) were added thereto, cultured for 48 hours, the culture medium was removed again after 48 hours, a new culture medium was added thereto, and then cultured in an incubator having conditions of […], 5% CO2, and a temperature of 37° C. for the next experiment. Thereafter, the culture medium was removed for stabilization after another 48 hours, then a new culture medium was added thereto, and then cultured in an incubator under conditions of […], 5% CO2, and a temperature of 37° C. for the next experiment.
Cells were seeded in a 96-well plate at a density of 2×10^4 cells/well and 200 ul for each well. In this regard, cell confluence was set to be about 70% to about 80%. After 24 hours, when the cells have stabilized, a 26 gauge or 28 gauge needle was used to remove a preexisting medium from the wells. 200 ul of PBS free of serum and nutrients was added to each well, the wells were divided into EPO treatment groups and MKX-2 treatment groups, which were further divided into experimental groups according to concentrations of 0 nM, 0.1 nM, 1 nM, 10 nM, 100 nM, and 1000 nM and then treated with a drug for 72 hours under hypoxic conditions, and surviving […] neurocytes were quantitatively analyzed in an […]. The EPO used was an Eporon injection (Dong-A Pharmaceuticals, Korea). All experimental groups for each concentration included 7 wells. After a certain treatment time, 3-[4,5-dimethylthiazol-2-yl]-2,5-diphenyl tetrazolium bromide (MTT, Sigma, M2128) that was dissolved in a phosphate buffered saline (PBS) and then sterilization filtered by using a membrane filter having a thickness of 0.22 um was added to each well in an amount of 100 ul at a concentration of 1 mg/ml. In this regard, an MIT reagent was used after wrapping the MTT reagent with a foil sheet to block it from light. […]
Thereafter, an ELISA reader was used to measure an O.D. value at 570 nm for quantitatively analysis. […]
(In general: Tetrazolium dyes change colour on reduction, which living cells bring about.)

Another test concerns neurocytes. The experiment in a line: Cell survival of neurocytes after serum removal, with or without 0.1% 2-mercaptoethanol, 72 hours. Format: cell-based, rat. The source says:
A rat pregnant for […] was cervically dislocated to sacrifice the experimental animal and the abdomen of the experimental animal was excised in an U-shape to expose the uterus in which a fetus was located. Thereafter, the fetus was taken out from the uterus and then inserted into a fetus washing medium and then washed three times. Only the head of the fetus was cut and then inserted into the fetus washing medium to wash the head three times and then the cranium of the fetus was broken to separate the brain therefrom. A knife was used to cut the cortex of the brain and tissues of the cortex were thoroughly chopped, which were then collected in the already prepared fetus washing medium. After centrifuging at 400 g for 4 minutes, a supernatant was removed therefrom and then 0.025% of trypsin and 10 ml of DNase1 were added to the pellets to break the pellets. The mixture was stored in an incubator for 15 minutes.
Thereafter, 15 ml of a cell culture medium was added thereto again, centrifuged at 400 g for 4 minutes, a supernatant was removed therefrom to obtain pellets, which were washed twice with 6 ml of a washing medium (including DNase 1), and then centrifuged again at 400 g for 4 minutes. After the centrifugation, the supernatant solution was removed again to obtain pellets, 10 ml of the culture medium was added to the pellets and a mixture obtained therefrom was mixed with 10 ul of trypan blue to count the cells by using a hemocytometer. In a 24-well plate, 500 ul of the cells were seeded in each well and then cultured for 48 hours. Thereafter, the culture medium was removed from the well plate for stabilization, a new cell culture medium and 5 uM Ara-c (cytosine arabinoside, sigma, C1768) were added thereto, cultured for […], the culture medium was removed again after 24 hours, a new culture medium was added thereto, and then cultured in an incubator having conditions of […], 5% CO2, and a temperature of 37° C. for the next experiment.
In a 96-well plate, cells were inoculated at a density of 2×10^4 cells/well and in an amount of 200 ul for each well. In this regard, cell confluence was set to be about 70% to about 80%. After 24 hours, when the cells have stabilized, a 26 or 28 gauge needle was used to remove a pre-existing medium from the wells. […]

With “EPO: erythropoietin; the EPO used was an Eporon injection (Dong-A Pharmaceuticals, Korea)”, in the test on retinal neurocytes (0.1 nM and 1 nM), the “increase of cell survival rate compared to 0 nM” value was “without any statistical significance”. Moreover, the cell survival rate was found to be 128.03% in the test on retinal neurocytes (10 nM); 127.6% with retinal neurocytes (100 nM); 124.77% with retinal neurocytes (1000 nM); 41.64% with neurocytes (EPO 1 IU/ml, serum removed, no 2-mercaptoethanol, 72 hours, normal culture = 100%); 6.98% with neurocytes (EPO 1 U/ml, after exposure to 0.1% 2-mercaptoethanol for 18 hours); 48.57% in the test on neurocytes (EPO 10 IU/ml, serum removed, no 2-mercaptoethanol, 72 hours, normal culture = 100%). The substance further yielded a cell survival rate in the test with neurocytes (EPO 10 U/ml, after exposure to 0.1% 2-mercaptoethanol for 18 hours) of 11.70%.
